In US12655139B2, “Isoxazolidines as RIPK1 inhibitors and use thereof” (SANOFI, priority 2020, dated 2026):
pIC50: −log10 of the molar value. Structures can show the parent of a compound that is named as a salt.

Experiments:
[1] = target: T1, hRIPK1 (aa 1-375) fusion protein (Homo sapiens, UniProt Q13546); test: ADP-Glo kinase assay, RIPK1 autophosphorylation; type: biochemical; settings: Table 1
T1 construct: hRIPK1 (aa 1-375) fusion protein
T1 sequence (Q13546 1-375): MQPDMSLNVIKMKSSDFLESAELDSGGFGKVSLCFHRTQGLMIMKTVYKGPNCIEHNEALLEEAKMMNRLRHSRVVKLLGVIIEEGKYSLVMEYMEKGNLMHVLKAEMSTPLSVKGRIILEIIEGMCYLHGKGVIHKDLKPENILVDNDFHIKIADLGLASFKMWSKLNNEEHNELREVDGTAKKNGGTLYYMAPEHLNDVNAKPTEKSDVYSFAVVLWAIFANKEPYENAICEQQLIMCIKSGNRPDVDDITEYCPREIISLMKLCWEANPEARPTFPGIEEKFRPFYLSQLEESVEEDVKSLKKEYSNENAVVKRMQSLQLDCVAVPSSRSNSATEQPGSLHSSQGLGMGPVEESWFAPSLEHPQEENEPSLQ

U937 cells = test: Cellular assay in U937 cells on cell death (necroptosis), TNFα/zVAD.fmk; type: cell-based; settings: Homo sapiens, U-937, Table 2; read-out: U937 IC50
Summary of the method: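 U937 cells with 100 ng/ml TNFα plus 50 μM zVAD.fmk (pre-addition suspension levels) received 10 compound concentrations (10 μM–0.26 nM or 1 μM–0.07 nM) for 18–24 h at 37 °C. Live cells were read by MTS formazan absorbance at 490 nm after 4 h. % inhibition is relative to the maximal value without TNFα/zVAD.fmk.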

Row | Structure (SMILES) | pIC50 [1] | pIC50 (U937 cells)
1 | Cc1cncc([C@@H]2CCON2C(=O)C2CCN(c3cc(C(N)=O)ncn3)CC2)c1 [compound 134, (S)-6-(4-(3-(5-methylpyridin-3-yl)isoxazolidine-2-carbonyl)piperidin-1-yl)pyrimidine-4-carboxamide] | 7.38 | 6.83
2 | Cc1ncc([C@@H]2CCON2C(=O)C2CCN(c3nccc(C(N)=O)n3)CC2)cc1F [compound 137, 2-[4-[(3S)-3-(5-fluoro-6-methyl-3-pyridyl)isoxazolidine-2-carbonyl]-1-piperidyl]pyrimidine-4-carboxamide] | 7.67 | 7.78
3 | Cc1ncc([C@@H]2CCON2C(=O)C2CCN(c3cc(C#N)ncn3)CC2)cc1F [compound 138, (S)-6-(4-(3-(5-fluoro-6-methylpyridin-3-yl)isoxazolidine-2-carbonyl)piperidin-1-yl)pyrimidine-4-carbonitrile] | 7.55 | 7.01
4 | Cc1ncc([C@@H]2CCON2C(=O)C2CCN(c3cc(C(N)=O)ncn3)CC2)cc1F [compound 139, 6-[4-[(3S)-3-(5-fluoro-6-methyl-3-pyridyl)isoxazolidine-2-carbonyl]-1-piperidyl]pyrimidine-4-carboxamide] | 7.47 | 7.35
5 | Cc1c(F)cncc1[C@@H]1CCON1C(=O)C1CCN(c2nccc(C#N)n2)CC1 [compound 140, (S)-2-(4-(3-(5-fluoro-4-methylpyridin-3-yl)isoxazolidine-2-carbonyl)piperidin-1-yl)pyrimidine-4-carbonitrile] | 7.15 | 6.26
6 | Cc1c(F)cncc1[C@@H]1CCON1C(=O)C1CCN(c2nccc(C(N)=O)n2)CC1 [compound 141, (S)-2-(4-(3-(5-fluoro-4-methylpyridin-3-yl)isoxazolidine-2-carbonyl)piperidin-1-yl)pyrimidine-4-carboxamide] | 7.09 | 6.60
7 | Cc1c(F)cncc1[C@@H]1CCON1C(=O)C1CCN(c2cc(C(N)=O)ncn2)CC1 [compound 142, (S)-6-(4-(3-(5-fluoro-4-methylpyridin-3-yl)isoxazolidine-2-carbonyl)piperidin-1-yl)pyrimidine-4-carboxamide] | 6.39 | 5.52
8 | Cc1c(F)cncc1[C@@H]1CCON1C(=O)C1CCN(c2cc(C#N)ncn2)CC1 [compound 143, (S)-6-(4-(3-(5-fluoro-4-methylpyridin-3-yl)isoxazolidine-2-carbonyl)piperidin-1-yl)pyrimidine-4-carbonitrile] | 6.49 | 5.75
9 | COc1nccc(N2CCC(C(=O)N3OCC[C@H]3c3cncc(C#N)c3)CC2)n1 [compound 144, 5-[(3S)-2-[1-(2-methoxypyrimidin-4-yl)piperidine-4-carbonyl]isoxazolidin-3-yl]pyridine-3-carbonitrile] | 7.12 | 6.27
10 | N#Cc1cncc([C@@H]2CCON2C(=O)C2CCN(c3ccnc(C#N)n3)CC2)c1 [compound 145, 4-[4-[(3S)-3-(5-cyano-3-pyridyl)isoxazolidine-2-carbonyl]-1-piperidyl]pyrimidine-2-carbonitrile] | 7.33 | 6.83
11 | CSc1nccc(N2CCC(C(=O)N3OCC[C@H]3c3cncc(C#N)c3)CC2)n1 [compound 146, 5-[(3S)-2-[1-(2-methylsulfanylpyrimidin-4-yl)piperidine-4-carbonyl]isoxazolidin-3-yl]pyridine-3-carbonitrile] | 7.34 | 6.64
12 | N#Cc1cncc([C@@H]2CCON2C(=O)C2CCN(c3ccnc(Cl)n3)CC2)c1 [compound 147, 5-[(3S)-2-[1-(2-chloropyrimidin-4-yl)piperidine-4-carbonyl]isoxazolidin-3-yl]pyridine-3-carbonitrile] | 7.51 | 7.24
13 | CCOC(=O)c1nccc(N2CCC(C(=O)N3OCC[C@H]3c3cncc(C#N)c3)CC2)n1 [compound 149, ethyl 4-[4-[(3S)-3-(5-cyano-3-pyridyl)isoxazolidine-2-carbonyl]-1-piperidyl]pyrimidine-2-carboxylate] | 6.43 | 5.21
14 | Cc1coc([C@@H]2CCON2C(=O)C2CCN(c3nccc(C#N)n3)CC2)c1 [compound 150, (S)-2-(4-(3-(4-methylfuran-2-yl)isoxazolidine-2-carbonyl)piperidin-1-yl)pyrimidine-4-carbonitrile] | 7.16 | 7.63
15 | Cc1coc([C@@H]2CCON2C(=O)C2CCN(c3nccc(C(N)=O)n3)CC2)c1 [compound 151, (S)-2-(4-(3-(4-methylfuran-2-yl)isoxazolidine-2-carbonyl)piperidin-1-yl)pyrimidine-4-carboxamide 2,2,2-trifluoroacetate salt] | 7.00 | 7.60
16 | Cc1coc([C@@H]2CCON2C(=O)C2CCN(c3cc(C#N)ncn3)CC2)c1 [compound 152, (S)-6-(4-(3-(4-methylfuran-2-yl)isoxazolidine-2-carbonyl)piperidin-1-yl)pyrimidine-4-carbonitrile 2,2,2-trifluoroacetate salt] | 6.88 | 6.89
17 | Cc1coc([C@@H]2CCON2C(=O)C2CCN(c3cc(C(N)=O)ncn3)CC2)c1 [compound 153, (S)-6-(4-(3-(4-methylfuran-2-yl)isoxazolidine-2-carbonyl)piperidin-1-yl)pyrimidine-4-carboxamide 2,2,2-trifluoroacetate salt] | 6.99 | 7.00
18 | Cc1cc([C@@H]2CCON2C(=O)C2CCN(c3nccc(C#N)n3)CC2)co1 [compound 162, (S)-2-(4-(3-(5-methylfuran-3-yl)isoxazolidine-2-carbonyl)piperidin-1-yl)pyrimidine-4-carbonitrile] | 7.70 | 8.27
19 | Cc1cc([C@@H]2CCON2C(=O)C2CCN(c3cc(C#N)ncn3)CC2)co1 [compound 163, (S)-6-(4-(3-(5-methylfuran-3-yl)isoxazolidine-2-carbonyl)piperidin-1-yl)pyrimidine-4-carbonitrile] | 7.68 | 8.22
20 | N#Cc1cncc([C@@H]2CCON2C(=O)C2CCN(c3cc(F)ncn3)CC2)c1 [compound 169, (S)-5-(2-(1-(6-fluoropyrimidin-4-yl)piperidine-4-carbonyl)isoxazolidin-3-yl)nicotinonitrile] | 7.63 | 6.92
21 | N#Cc1cc([C@@H]2CCON2C(=O)C2CCN(c3nccc(C(N)=O)n3)CC2)cnn1 [compound 179, 2-[4-[(3S)-3-(6-cyanopyridazin-4-yl)isoxazolidine-2-carbonyl]-1-piperidyl]pyrimidine-4-carboxamide] | 6.76 | 5.69
22 | Cc1ccc([C@@H]2CCON2C(=O)C2CCN(c3ncc(C)c(C(N)=O)n3)CC2)s1 [compound 182, 5-methyl-2-[4-[(3S)-3-(5-methyl-2-thienyl)isoxazolidine-2-carbonyl]-1-piperidyl]pyrimidine-4-carboxamide] | 7.81 | 8.15
23 | Cc1ccc([C@@H]2CCON2C(=O)C2CCN(c3ncnc(C(N)=O)c3F)CC2)cn1 [compound 187, 5-fluoro-6-[4-[(3S)-3-(6-methyl-3-pyridyl)isoxazolidine-2-carbonyl]-1-piperidyl]pyrimidine-4-carboxamide; trifluoroacetic acid] | 7.18 | 6.49
